The source of these data is patent publication US20040235809A1, “Epoxy steroidal aldosterone antagonist and beta-adremergic antagonist combination therepy for treatment of congestive heart failure” (priority 2000, published 2004).

Data set [1] concerns patients with mild to moderate hypertension. The experiment in a line: Example 19 clinical study: eplerenone versus placebo co-administered with a calcium-channel blocker. It is filed as in vivo, human.
Text: This multicenter, randomized, double-blind, placebo-controlled, placebo run-in, parallel group trial involving a minimum of 120 randomized patients with hypertension (seated diastolic blood pressure [seDBP]≧95 mmHg and <110 mmHg and seated systolic BP [seSBP]<180 mmHg while taking a CCB) will consist of a one- to two-week pretreatment screening period followed by a two- to four-week single-blind placebo run-in period and an 8-week double-blind treatment period. Eligible patients will be patients currently receiving a CCB as part of their antihypertensive medication. […] The dose will not be changed for patients with adequate BP control. […] If the dose has been increased at Week 2, the patient will be reassessed at Week 6. […] If BP is uncontrolled at Week 6 and the dose has been increased at Week 2 or Week 4, the patient must be withdrawn from the study. If symptomatic hypotension (i.e., lightheadedness, dizziness, or syncope associated with low BP) occurs at any time during the study, or if DBP is ≧110 mmHg or SBP is ≧180 mmHg at any time during the trial, the patient must be withdrawn. Patients will receive study medication for a total of 8 weeks.
Patients will return to the clinic for evaluations at Weeks 0 (baseline), 2, 4, 6, 8, and 9. Heart rate, BP, adverse events and concomitant medication will be assessed at each visit. Hematology and biochemistry evaluations and urinalysis for safety will be at Weeks 0, 8, and 9. Serum potassium levels will be determined at Weeks 0 (baseline), 2, 4, 6, 8, and 9. Plasma renin, serum aldosterone, and plasma cortisol will be determined at Weeks 0 and 8. A 12-lead electrocardiogram and physical examination will be done at screening and at Week 9.
The study will consist of a one- to two-week pretreatment screening period followed by a two- to four-week single-blind placebo run-in treatment period, prior to randomization to an eight-week double-blind treatment period.
Eligible patients will be either currently receiving a CCB alone, or receiving a CCB as part of their antihypertensive medication. […] The dose will not be changed for patients with adequate BP control. […] If the dose has been increased at Week 2, the patient will be reassessed at Week-6. The dose of study medication will not be changed for patients with adequate BP control. […] If BP is uncontrolled at Week 6 and the dose has been increased at Week 2 or Week 4, the patient must be withdrawn from the study. The dose of study medication will not be changed for patients with adequate BP control. If symptomatic hypotension (i.e., lightheadedness, dizziness, or syncope associated with low BP) occurs at any time during the study, or if DBP is ≧110 mmHg or SBP is ≧180 mmHg at any time during the study, the patient must be withdrawn. Patients will receive study medication for a total of eight weeks.
Patients will return to the clinic for evaluations at Weeks 0, 2, 4, 6, 8, and 9. Heart rate, BP, adverse events and concomitant medication will be assessed at each visit. Hematology and biochemistry evaluations and urinalysis for safety will be at Weeks 0, 8, and 9. Serum potassium levels will be determined at Weeks 0, 2, 4, 6, 8, and 9. Plasma renin, serum aldosterone, and plasma cortisol will be determined at Weeks 0 and 8. […]
BP evaluations will be analyzed at each visit using two-way analysis of covariance (ANCOVA) with the baseline measurement as the covariate and treatment and center as factors. […]
The subject of the next data set is hypertensive rats. Briefly: Assay C: hypertensive rat model (renal artery clip). It is filed as in vivo. The settings on record: combination of beta-adrenergic antagonist and eplerenone versus either component alone, after 12 to 24 weeks. An excerpt:
Assay “C”: Hypertensive Rat Model Male rats are made hypertensive by placing a silver clip with an aperture of 240 microns on the left renal artery, leaving the contralateral kidney untouched. Sham controls undergo the same procedure but without attachment of the clip. One week prior to the surgery, animals to be made hypertensive are divided into separate groups and drug treatment is begun. […] After 12 to 24 weeks, systolic and diastolic blood pressure, left ventricular end diastolic pressure, left ventricular dP/dt, and heart rate are evaluated. The hearts are removed, weight, measured and fixed in formalin. Collagen content of heart sections are evaluated using computerized image analysis of picrosirius stained sections.

Data set [2] relates to rats with coronary artery ligation. The experiment in a line: Assay D: myocardial infarction rat model. It is filed as in vivo. The settings on record: combination of beta-adrenergic antagonist and eplerenone versus either component alone, after six weeks. The text has this: Assay “D” Myocardial Infarction Rat Model: male rats are anesthetized and the heart is exteriorized following a left sided thoracotomy. The left anterior descending coronary artery is ligated with a suture. The thorax is closed and the animal recovers. Sham animals have the suture passed through without ligation. One week prior to the surgery, animals to undergo infraction are divided into separate groups and drug treatment is begun. […] After six weeks, systolic and diastolic blood pressure, left ventricular end diastolic pressure, left ventricular dP/dt, and heart rate are evaluated. The hearts are removed, weight, measured and fixed in formalin. Collagen content of heart sections are evaluated using computerized image analysis of picrosirius stained sections.

A further data set concerns animal models. The settings on record: cited from earlier work.
[3] abbreviates: eplerenone plus CCB compared to CCB and placebo.

The structures appear in SMILES notation.

On to `COC(=O)[C@@H]1CC2=CC(=O)CC[C@]2(C)[C@@]23O[C@@H]2C[C@@]2(C)[C@@H](CC[C@@]24CCC(=O)O4)[C@H]13` [eplerenone, Pregn-4-ene-7,21-dicarboxylic acid, 9,11-epoxy-17-hydroxy-3-oxo-,γ-lactone, methyl ester, (7α,11α,17β)-], for which, in data set [1] (eplerenone 50-100 mg plus fixed dose CCB versus CCB plus placebo, eight weeks), the systolic blood pressure entry was “significant reduction”. Also, in data set [1] (eplerenone added to CCB therapy), the serious adverse events entry is “no serious adverse events”. Also, in data set [1] (setting [3]), the active renin levels entry is recorded as “greater increase”. Besides, the aldosterone levels result in data set [1] (setting [3]) is recorded as “greater increase”. In addition, the “change in mean diastolic blood pressure” value in data set [1] (eplerenone plus CCB versus CCB plus placebo, eight weeks) is “greater for the dual therapy group, compared to monotherapy, but this difference did not reach statistical significance”. For the same molecule, the cardiac performance entry (with hypertensive rats; in data set [2]) was “improvements in cardiac performance” each time.
Turning to `CC(=O)S[C@@H]1CC2=CC(=O)CC[C@]2(C)[C@H]2CC[C@@]3(C)[C@@H](CC[C@@]34CCC(=O)O4)[C@H]12` [spironolactone], in the data set with animal models (D. Klug et al 1993), the myocardial fibrosis entry was “prevents myocardial fibrosis”. The fibrosis result in the data set on animal models (irrespective of left ventricular hypertrophy and hypertension, C. G. Brilla et al 1993) is given as “prevent fibrosis”.
